From ChEMBL document CHEMBL4196205, “Dihydrochalcone Glucosides from the Subaerial Parts of Thonningia sanguinea and Their in Vitro PTP1B Inhibitory Activities” (J Nat Prod, 2018)

Columns and labels:
[1] = biological target: T1, Tyrosine-protein phosphatase non-receptor type 1 (Homo sapiens, UniProt P18031); experiment: Inhibition of recombinant human PTP1B using pNPP as substrate assessed as residual activity after 30 mins by spectrometric method
T1 sequence (P18031 whole entry): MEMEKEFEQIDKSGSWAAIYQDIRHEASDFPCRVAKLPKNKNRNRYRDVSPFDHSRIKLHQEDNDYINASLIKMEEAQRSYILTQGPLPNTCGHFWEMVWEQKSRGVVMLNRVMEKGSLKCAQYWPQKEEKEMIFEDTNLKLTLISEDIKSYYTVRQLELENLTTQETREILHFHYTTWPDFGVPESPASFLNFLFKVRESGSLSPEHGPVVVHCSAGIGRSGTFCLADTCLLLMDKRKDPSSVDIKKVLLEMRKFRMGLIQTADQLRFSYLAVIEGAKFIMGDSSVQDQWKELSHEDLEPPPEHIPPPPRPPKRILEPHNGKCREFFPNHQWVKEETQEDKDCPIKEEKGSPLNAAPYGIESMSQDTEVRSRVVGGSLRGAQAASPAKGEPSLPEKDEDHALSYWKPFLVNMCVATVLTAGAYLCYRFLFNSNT

[2] = biological target: T2, Tyrosine-protein phosphatase non-receptor type 1 (Homo sapiens) (UniProt P18031); experiment: Inhibition of recombinant human PTP1B using pNPP as substrate assessed as residual activity at 30 uM after 30 mins by spectrometric method relative to control
T2 sequence (whole entry): T1 sequence (P18031 whole entry)

HepG2 [3] = experiment: Cytotoxicity against human HepG2 cells assessed as decrease in cell viability at > 30 uM after 24 hrs by resazurin dye based assay; settings: hepg2, 24 h
[4] = biological target: T2, Tyrosine-protein phosphatase non-receptor type 1 (Homo sapiens); experiment: Inhibition of PTP1B in human HepG2 cells assessed as increase in insulin-stimulated IR tyrosine phosphorylation at Y1150/1151 residues preincubated for 30 mins followed by insulin addition measured after 5 mins by immuno blot method; format: cell-based
HepG2 [5] = experiment: Cytotoxicity against human HepG2 cells assessed as decrease in cell viability at > 30 uM after 24 hrs by crystal violet staining based assay; settings: hepg2, 24 h

Row | IC50 [1] [µM] | Activity [2] [%] | SMILES | further results
1 | 23.8 | 30.9 | O=C1OC[C@H]2O[C@@H](Oc3cc(O)c(C(=O)CCc4ccc(O)cc4)c(O)c3)[C@H](O)[C@@H](O)[C@@H]2OC(=O)c2cc(O)c(O)c(O)c2-c2c1cc(O)c(O)c2O | 
2 | 4.4 | 1.9 | O=C(O[C@@H]1[C@@H](O)[C@H](Oc2cc(O)c(C(=O)CCc3ccccc3)c(O)c2)O[C@@H]2COC(=O)c3cc(O)c(O)c(O)c3-c3c(cc(O)c(O)c3O)C(=O)O[C@@H]12)c1cc(O)c(O)c(O)c1 [THONNINGIANIN A] | Activity (HepG2 [3]): Toxic; inhibition [4]: Dose-dependent effect; Activity (HepG2 [5]): Toxic
3 |  | 84.4 | O=C1OC[C@H]2O[C@@H](Oc3cc(O)cc(O)c3C(=O)CCc3ccc(O)c(O)c3)[C@H](O)[C@@H](O)[C@@H]2OC(=O)c2cc(O)c(O)c(O)c2-c2c1cc(O)c(O)c2O | 
4 | 24.7 | 29.2 | O=C(O[C@@H]1[C@@H](O)[C@H](Oc2cc(O)cc(O)c2C(=O)CCc2ccc(O)c(O)c2)O[C@@H]2COC(=O)c3cc(O)c(O)c(O)c3-c3c(cc(O)c(O)c3O)C(=O)O[C@@H]12)c1cc(O)c(O)c(O)c1 | 
5 | 21.7 | 28.5 | O=C1OC[C@H]2O[C@@H](Oc3cc(O)c(C(=O)CCc4ccccc4)c(O)c3)[C@H](O)[C@@H](O)[C@@H]2OC(=O)c2cc(O)c(O)c(O)c2-c2c1cc(O)c(O)c2O [THONNINGIANIN B] | 
6 | 19.3 | 20.8 | O=C(O[C@@H]1[C@@H](O)[C@H](Oc2cc(O)cc(O)c2C(=O)CCc2ccc(O)cc2)O[C@@H]2COC(=O)c3cc(O)c(O)c(O)c3-c3c(cc(O)c(O)c3O)C(=O)O[C@@H]12)c1cc(O)c(O)c(O)c1 | 

The remaining lines, values behind:

Row | SMILES | IC50 [1] [µM] | Activity [2] [%] | further results
7 | O=C(CCc1ccccc1)c1c(O)cc(O[C@@H]2O[C@H](CO)[C@@H](O)[C@H](O)[C@H]2O)cc1O |  | 97.7 | 
8 | COc1cc(/C=C/CO)ccc1O[C@@H]1O[C@H](CO)[C@@H](O)[C@H](O)[C@H]1O |  | 99.2 | 
9 | COc1cc(C[C@H]2CO[C@H](c3ccc(O)c(OC)c3)[C@H]2CO)ccc1O |  | 86.1 | 
10 | O=C(OC[C@H]1O[C@@H](Oc2cc(O)cc(O)c2C(=O)CCc2ccc(O)c(O)c2)[C@H](O)[C@@H](O)[C@@H]1O)c1cc(O)c(O)c(O)c1 |  | 91.7 | 
11 | O=C(CCc1ccc(O)c(O)c1)c1c(O)cc(O)cc1O[C@@H]1O[C@H](CO)[C@@H](O)[C@H](O)[C@H]1O |  | 102 | 
12 | COc1cc([C@H]2OC[C@H]3[C@@H]2CO[C@@H]3c2ccc(O)c(OC)c2)ccc1O |  | 98.6 | 
13 | O=C(OC[C@H]1O[C@@H](Oc2cc(O)c(C(=O)CCc3ccccc3)c(O)c2)[C@H](O)[C@@H](O)[C@@H]1O)c1cc(O)c(O)c(O)c1 |  | 99.4 | 
